Key:
[1] = system: mice fed Gubra amylin NASH (GAN) diet; assay: Biological effects in GAN diet NASH mice; assay type: in vivo; conditions: after two weeks, 10 mg/kg group; for Gal-3 Total: liver Galectin-3, histological quantitative assessment; for TG Total: liver triglycerides, GAN diet NASH mice; for α-SMA Total: liver α-smooth muscle actin, histological quantitative assessment
Description: NASH was induced in mice by feeding mice a Gubra amylin NASH (GAN) diet as described in Boland et al. World J Gastroenterol. 2019, 25(33): 4904-4920. One week prior to administration of a first dose of compounds, the mice were weighed and randomized, and their food intake was measured. Mice were randomly assigned to dosing groups, with twelve mice per group. […] Compound dose titration (nmol/kg): 0.6 (day 0), 1.2 (day 1), 2.4 (day 2), 4.8 (day 3), 4.8 (day 4), 12 (day 5), 30.0 (from day 6).
After two weeks, animals were sacrificed. Plasma enzymes (P-ALT (alanine aminotransferase) and P-AST (aspartate aminotransferase)), total plasma triglycerides, and total plasma cholesterol were measured, and terminal necropsy of each liver was carried out, determining relative liver weight as a percentage of body weight, assaying total liver biochemistry including total liver triglycerides, plasma insulin and total liver cholesterol, as well as histological evaluation of Galectin-3, and alpha-smooth muscle actin.

[2] = Pharmacokinetics in monkeys, SC dosing; assay type: in vivo, cynomolgus monkeys; conditions: for half-life: cynomolgus monkey, in vivo, male cynomolgus monkeys, SC single dose 0.2 mg/kg, 0.1% bovine serum albumin in phosphate buffered saline, mean; for persistence in the blood stream as compared to tirzepatide: cynomolgus monkeys, SC 0.2 mg/kg
Description: (§1) Subcutaneous (SC) dosing of the compounds in a vehicle of 0.1% bovine serum albumin in phosphate buffered saline solution was performed with male cynomolgus monkeys. […] Samples were obtained at 1, 4, 8, 12, 24, 48, 72, 96, 120, 168, 192, 240 and 336 hours after the single dose was administered.

[3] = Pharmacokinetics studies of formulations, SC dosing; assay type: in vivo, cynomolgus monkeys; conditions: for half-life: cynomolgus monkey, in vivo, SC 0.2 mg/kg, mean
Description: as §1
Formulation 1 included the compound in a vehicle of 0.1% bovine serum albumin in phosphate buffered saline solution.

GLP-1 receptor [4] = biological target: T1, GLP-1 receptor (Homo sapiens, UniProt P43220); assay: TagLite binding assay, GLP-1 receptor; conditions: for % Binding avg at CMax: GLP-1 receptor
GIP receptor [5] = biological target: T2, GIP receptor (Homo sapiens, UniProt P48546); assay: HSA modulated binding assay, GIP receptor; conditions: for % Binding avg at CMax: GIP receptor; for IC50: IC 50, GIP receptor
T2 sequence (P48546 22-466): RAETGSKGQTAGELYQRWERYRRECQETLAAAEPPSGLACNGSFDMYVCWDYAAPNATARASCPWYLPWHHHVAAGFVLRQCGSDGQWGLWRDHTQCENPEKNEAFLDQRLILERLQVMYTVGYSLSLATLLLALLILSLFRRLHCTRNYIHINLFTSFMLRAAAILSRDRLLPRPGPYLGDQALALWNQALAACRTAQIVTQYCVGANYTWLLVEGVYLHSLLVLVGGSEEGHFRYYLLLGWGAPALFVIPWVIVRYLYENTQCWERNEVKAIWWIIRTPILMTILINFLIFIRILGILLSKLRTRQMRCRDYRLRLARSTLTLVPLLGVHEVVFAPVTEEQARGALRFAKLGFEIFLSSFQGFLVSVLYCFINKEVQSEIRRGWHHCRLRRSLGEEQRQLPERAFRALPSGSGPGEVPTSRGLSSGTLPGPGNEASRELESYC

GIP receptor [6] = biological target: T2, GIP receptor; assay: TagLite binding assay, GIP receptor; conditions: for % Binding avg at CMax: GIP receptor
GLP-1 receptor [7] = biological target: T1, GLP-1 receptor; assay: HSA modulated binding assay, GLP-1 receptor; conditions: for IC50: IC 50, GLP-1 receptor

T1 sequence (P43220 24-463): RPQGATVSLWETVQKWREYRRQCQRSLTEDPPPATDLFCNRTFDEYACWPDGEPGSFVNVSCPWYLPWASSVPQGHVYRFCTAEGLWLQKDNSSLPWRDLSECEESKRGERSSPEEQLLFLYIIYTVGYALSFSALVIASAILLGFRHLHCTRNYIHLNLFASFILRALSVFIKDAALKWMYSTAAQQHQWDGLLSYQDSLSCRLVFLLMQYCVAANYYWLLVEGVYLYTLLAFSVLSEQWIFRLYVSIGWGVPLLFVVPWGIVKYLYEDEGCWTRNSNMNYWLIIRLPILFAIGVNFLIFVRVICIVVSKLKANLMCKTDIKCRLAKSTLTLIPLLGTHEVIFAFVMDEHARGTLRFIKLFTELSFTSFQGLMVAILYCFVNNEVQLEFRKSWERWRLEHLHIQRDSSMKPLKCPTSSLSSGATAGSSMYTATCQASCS

Row | Molecule | Gal-3 Total [1] [mg] | TG Total [1] [mg per/ liver] | α-SMA Total [1] [mg] | half-life [2] [h] | persistence in the blood stream as compared to tirzepatide [2] | % Binding avg at CMax (GLP-1 receptor [4]) [%] | % Binding avg at CMax (GIP receptor [5]; 0% HSA) [%] | % Binding avg at CMax (GIP receptor [5]; 2% HSA) [%] | % Binding avg at CMax (GIP receptor [6]) [%] | % Binding avg at CMax (GLP-1 receptor [7]; GLP-1 receptor, 0% HSA) [%] | % Binding avg at CMax (GLP-1 receptor [7]; GLP-1 receptor, 2% HSA) [%] | further results
1 | CC[C@H](C)[C@H](NC(=O)[C@H](CC(C)C)NC(=O)[C@H](Cc1c[nH]c2ccccc12)NC(=O)[C@H](CCC(N)=O)NC(=O)[C@@H](NC(=O)[C@H](Cc1ccccc1)NC(=O)[C@H](C)NC(=O)[C@H](CCCCNC(=O)COCCOCCNC(=O)COCCOCCNC(=O)CC[C@H](NC(=O)CCCCCCCCCCCCCCCCCCP(=O)(O)O)C(=O)O)NC(=O)[C@H](CCC(N)=O)NC(=O)[C@H](C)NC(=O)[C@@H](NC(=O)[C@H](CCCCN)NC(=O)[C@H](CC(=O)O)NC(=O)[C@H](CC(C)C)NC(=O)C(C)(C)NC(=O)[C@@H](NC(=O)[C@H](CO)NC(=O)[C@H](Cc1ccc(O)cc1)NC(=O)[C@H](CC(=O)O)NC(=O)[C@H](CO)NC(=O)[C@@H](NC(=O)[C@H](Cc1ccccc1)NC(=O)[C@@H](NC(=O)CNC(=O)[C@H](CCC(=O)O)NC(=O)C(C)(C)NC(=O)[C@@H](N)Cc1ccc(O)cc1)[C@@H](C)O)[C@@H](C)O)[C@@H](C)CC)[C@@H](C)CC)C(C)C)C(=O)N[C@@H](C)C(=O)NCC(=O)NCC(=O)N1CCC[C@H]1C(=O)N[C@@H](CO)C(=O)N[C@@H](CO)C(=O)NCC(=O)N[C@@H](C)C(=O)N1CCC[C@H]1C(=O)N1CCC[C@H]1C(=O)N1CCC[C@H]1C(=O)N[C@@H](CO)C(N)=O [Compound 4] | 137 ± 15 | 70 ± 5 | 102 ± 10 | 118 | significantly greater persistence | – | – | – | – | – | – | persistence in the blood stream as compared to tirzepatide in the identical formulation ([3]; Formulation 1 and Formulation 2): significantly greater persistence; half-life ([3]; Formulation 1 (0.1% bovine serum albumin in phosphate buffered saline)): 106 h; half-life ([3]; Formulation 2 (40% propylene glycol and 60% 10 mM pH 6 citrate buffer)): 120 h
2 | CC[C@H](C)[C@H](NC(=O)[C@H](CC(C)C)NC(=O)[C@H](Cc1c[nH]c2ccccc12)NC(=O)[C@H](CCC(N)=O)NC(=O)[C@@H](NC(=O)[C@H](Cc1ccccc1)NC(=O)[C@H](C)NC(=O)[C@H](CCCCNC(=O)COCCOCCNC(=O)COCCOCCNC(=O)CC[C@H](NC(=O)CCCCCCCCCCCCCCCCCCC(=O)O)P(=O)(O)O)NC(=O)[C@H](CCC(N)=O)NC(=O)[C@H](C)NC(=O)[C@@H](NC(=O)[C@H](CCCCN)NC(=O)[C@H](CC(=O)O)NC(=O)[C@H](CC(C)C)NC(=O)C(C)(C)NC(=O)[C@@H](NC(=O)[C@H](CO)NC(=O)[C@H](Cc1ccc(O)cc1)NC(=O)[C@H](CC(=O)O)NC(=O)[C@H](CO)NC(=O)[C@@H](NC(=O)[C@H](Cc1ccccc1)NC(=O)[C@@H](NC(=O)CNC(=O)[C@H](CCC(=O)O)NC(=O)C(C)(C)NC(=O)[C@@H](N)Cc1ccc(O)cc1)[C@@H](C)O)[C@@H](C)O)[C@@H](C)CC)[C@@H](C)CC)C(C)C)C(=O)N[C@@H](C)C(=O)NCC(=O)NCC(=O)N1CCC[C@H]1C(=O)N[C@@H](CO)C(=O)N[C@@H](CO)C(=O)NCC(=O)N[C@@H](C)C(=O)N1CCC[C@H]1C(=O)N1CCC[C@H]1C(=O)N1CCC[C@H]1C(=O)N[C@@H](CO)C(N)=O [Compound 8] | 117 ± 12 | 75 ± 7 | 83 ± 8 | – | – | – | – | – | – | – | – | –
3 | CC[C@H](C)[C@H](NC(=O)[C@H](CC(C)C)NC(=O)[C@H](Cc1c[nH]c2ccccc12)NC(=O)[C@H](CCC(N)=O)NC(=O)[C@@H](NC(=O)[C@H](Cc1ccccc1)NC(=O)[C@H](C)NC(=O)[C@H](CCCCNC(=O)COCCOCCNC(=O)COCCOCCNC(=O)CC[C@H](NC(=O)CCCCCCCCCCCCCCCCCCP(=O)(O)O)P(=O)(O)O)NC(=O)[C@H](CCC(N)=O)NC(=O)[C@H](C)NC(=O)[C@@H](NC(=O)[C@H](CCCCN)NC(=O)[C@H](CC(=O)O)NC(=O)[C@H](CC(C)C)NC(=O)C(C)(C)NC(=O)[C@@H](NC(=O)[C@H](CO)NC(=O)[C@H](Cc1ccc(O)cc1)NC(=O)[C@H](CC(=O)O)NC(=O)[C@H](CO)NC(=O)[C@@H](NC(=O)[C@H](Cc1ccccc1)NC(=O)[C@@H](NC(=O)CNC(=O)[C@H](CCC(=O)O)NC(=O)C(C)(C)NC(=O)[C@@H](N)Cc1ccc(O)cc1)[C@@H](C)O)[C@@H](C)O)[C@@H](C)CC)[C@@H](C)CC)C(C)C)C(=O)N[C@@H](C)C(=O)NCC(=O)NCC(=O)N1CCC[C@H]1C(=O)N[C@@H](CO)C(=O)N[C@@H](CO)C(=O)NCC(=O)N[C@@H](C)C(=O)N1CCC[C@H]1C(=O)N1CCC[C@H]1C(=O)N1CCC[C@H]1C(=O)N[C@@H](CO)C(N)=O [Compound 12] | – | – | – | 104 | significantly greater persistence | 0.09 | −3.33 | 5.52 | −1.47 | 0.22 | 12.04 | IC50 (GLP-1 receptor [4]): 129 nM; IC50 (GIP receptor [5]; 0% HSA): 256 nM; IC50 (GIP receptor [5]; 2% HSA): 436 nM; IC50 (GIP receptor [6]): 137 nM; IC50 (GLP-1 receptor [7]; 0% HSA): 145 nM; IC50 (GLP-1 receptor [7]; 2% HSA): 763 nM
4 | tirzepatide [reference compound] | 138 ± 17 | 80 ± 11 | 108 ± 22 | – | – | 0.20 | −3.05 | 10.07 | −1.21 | −0.14 | 33.01 | Ratio of HSA/No HSA (GLP-1 receptor [7]; GLP-1 receptor, binding with 2% HSA to binding with 0% HSA): 12.8

Reference: patent US11744873B2, “Compositions and methods for the treatment of metabolic and liver disorders” (Viking Therapeutics, Inc., priority 2021, dated 2023)
